Experimental data as given in patent publication US5663205A, “Pharmaceutical composition for use in glaucoma treatment” (Senju Pharmaceutical Co. Ltd., priority 1992, dated 1997).

Experiments:
pupil diameter [1] = assay: Test Example 1 (2): pupil diameter, pigmented rabbits; assay type: in vivo, pigmented rabbits (Dutch belted rabbits); settings: treated eyes, 0.5 to 6 hours after topical application
Experimental: Male pigmented rabbits (Dutch belted rabbits) weighing about 2 kg, after having been confirmed to be free from ocular abnormalities; were bred in a breeding room maintained at a temperature of 24± 4° C. and at a relative humidity of 55± 15%, while they were given solid food (Labo RG-RO manufactured by Nihon Nohsan Kogyo K.K.) at a daily rate of 100 g per rabbit and allowed free access to tap water as drinking water. As a test drug, amosulalol hydrochloride was processed into 0.05% (hereinafter, the term "%" is to be understood to designate "w/v %") and 1.0% aqueous solutions which were used in the test, and 0.5% timolol maleate ophthalmic solution [Timoptol (registered trademark): Ban-yu Pharmaceutical Co.] and physiological saline were used as a positive control drug and a control substance, respectively. (2) Measurement of pupil diameter: With each of the rabbits as used under the above item (1), pupil diameter was measured for both eyes using a micrometer caliper, before instillation and 0.5, 1, 2, 3, 4, and 6 hours after topical application of the individual test drugs and physiological saline, respectively.

pupil diameter [2] = assay: Test Example 2 (2): pupil diameter, pigmented rabbits; assay type: in vivo, pigmented rabbits (Dutch belted rabbits); settings: 0.5% aqueous solution (FIG. 4), 0.5 to 6 hours
Experimental: Forty (40) male pigmented rabbits (Dutch belted rabbits) weighing about 2 kg, after having been confirmed to be free from ocular abnormalities, were bred in a breeding room maintained at a temperature of 24± 4° C. and at a relative humidity of 55± 15%, while they were fed solid food (Labo RG-RO, manufactured by Nihon Nohsan Kogyo K.K.) at a daily rate of 100 g per rabbit and allowed free access to tap water as drinking water. As a test drug, amosulalol hydrochloride was processed into 0.05%, 0.5% and 1.0% aqueous solutions which were used in the test, and 0.5% timolol maleate ophthalmic solution [Timoptol (registered trademark): Ban-yu Pharmaceutical Co.] and physiological saline were used as a positive control drug and a control substance, respectively. (2) Measurement of pupil diameter: With each of the rabbits as used under the above item (1), pupil diameter was measured for both eyes using a micrometer caliper, before instillation and 0.5, 1, 2, 3, 4, and 6 hours after topical application of the respective test drugs and physiological saline, respectively. […] The signs "a" and "c" designate physiological saline, 0.5% aqueous solution of amosulalol hydrochloride, respectively.

[3] = test system: Normal Intraocular Pressure; assay: Test Example 3: intraocular pressure, consecutive application for 5 days, pigmented rabbits; assay type: in vivo; settings: 0.5% aqueous solution
Experimental: Intraocular Pressure Reducing Activity of Amosulalol Hydrochloride by Consecutive Application for 5 Days on Normal Intraocular Pressure in Pigmented Rabbits
Eight (8) male pigmented rabbits weighing about 2 kg, after having been confirmed to be free from ocular abnormalities, were bred in a breeding room maintained at a temperature of 24± 4° C. and at a relative humidity of 55± 15%, while they were given solid food (Labo RG-RO, manufactured by Nihon Nohsan Kogyo K.K.) at a daily rate of 100 g per rabbit and allowed free access to tap water as drinking water.
For the 8 pigmented rabbits bred by the above procedure, 50 μl of 0.5% aqueous solution of amosulalol hydrochloride was applied to one eye, with 50 μl of physiological saline being given topically to the other. Intraocular pressure was measured before the first instillation and at regular intervals of 1 hour up to 8 hours after application on Days 1 and 5, and before the first instillation and 2 or 3 hours after application on Days 2, 3 and 4, respectively, with intraocular pressure additionally being measured 24 hours after the first instillation on Day 5.
The signs "a" and "c" designate physiological saline, 0.5% aqueous solution of amosulalol hydrochloride, respectively.

[4] = test system: Hypertensive Intraocular Pressure Induced by Water Loading; assay: Test Example 4: hypertensive intraocular pressure induced by water loading, white rabbits; assay type: in vivo; settings: 0.5% aqueous solution
Experimental: Intraocular Pressure Reducing Activity of 0.5% Aqueous Solution of Amosulalol Hydrochloride on Hypertensive Itraocular Pressure Induced by Water Loading White Rabbits
With 5 male white rabbits weighing about 2 kg used as test animals, 50 μl of 0.5% aqueous solution of amosulalol hydrochloride was applied to one eye of each rabbit, with 50 μl of physiological saline being given to the other, and drinking water, 60 ml/kg (37° C.) was loaded by means of an oral probe 30 min later. Intraocular pressure was measured for both eyes using PTG before instillation as well as before water loading and 0.5, 1, 2 and 4 hours after the same.
FIG. 6 is a graph showing the intraocular pressure reducing activity of 0.5% aqueous solution of amosulalol hydrochloride on hypertensive intraocular pressure induced by water loading in white rabbits with time (hour) after instillation taken as abscissa and intraocular pressure (mmHg) as ordinate; each value in mean ± S.E. (number of cases is […]).

[5] = Stability of aqueous solution against heat and light; assay type: physicochemical
[6] = Test Example 7 (2)(a),(b): general conditions and body weight, 28 days instillation; assay type: in vivo, Japanese white rabbits; settings: 1% and 0.5% ophthalmic solutions, 4 times a day
Experimental: (2) Ocular local toxicity test in rabbits of 1.0% and 0.5% ophthalmic solutions of amosulalol hydrochloride by consecutive instillation for 28 days: With 15 male Japanese white rabbits divided into 3 groups each consisting of 5 rabbits, 1.0% and 0.5% ophthalmic solutions of amosulalol hydrochloride as well as physiological saline as a control were applied in one drop (0.05 ml) per time to the right eye of each rabbit alone, four times a day at a regular interval of 2.5 hours, for 28 days consecutively with the left eye being left untreated. (a) General conditions; Observation was made on the […] for general conditions once a week. (b) Body weight measurement; Body weight was measured once a week.

eyeball = assay: Test Example 7 (2)(f): optical microscope evaluation of a sagittal section of the eyeball; assay type: in vivo, Japanese white rabbits; settings: 1% and 0.5% ophthalmic solutions, 28 days
Experimental: (2) Ocular local toxicity test in rabbits of 1.0% and 0.5% ophthalmic solutions of amosulalol hydrochloride by consecutive instillation for 28 days:
With 15 male Japanese white rabbits divided into 3 groups each consisting of 5 rabbits, 1.0% and 0.5% ophthalmic solutions of amosulalol hydrochloride as well as physiological saline as a control were applied in one drop (0.05 ml) per time to the right eye of each rabbit alone, four times a day at a regular interval of 2.5 hours, for 28 days consecutively with the left eye being left untreated.
(f) Evaluation with an optical microscope of a sagittal section of the eyeball;
After completion of the instillation of 1.0% and 0.5% ophthalmic solutions of amosulalol hydrochloride, specimens for optical microscopy were prepared each having a sagittal section of the eyeball from 2 eyes each of the two groups to conduct microscopic examination of the eyelid, conjunctiva, cornea, anterior segment, iris, crystalline lens vitreous body, retinochoroid membrane, screla and optic nerve.

conjunctiva = assay: Test Example 2: conjunctival hyperemia, pigmented rabbits; assay type: in vivo, pigmented rabbits (Dutch belted rabbits); settings: concentrations of less than 0.5%
α-adrenergic = settings: cited from earlier work

COc1ccccc1OCCNCC(O)c1ccc(C)c(S(N)(=O)=O)c1.Cl (stereo not drawn) [amosulalol hydrochloride, 5-[1-hydroxy-2-[2-(2-methoxyphenoxy)ethylamino]ethyl]-2-methylbenzenesulfonamide hydrochloride]
change in pupil diameter (pupil diameter [1]): no significant change in the pupil diameter
change in pupil diameter (pupil diameter [2]): no significant change in the pupil diameter
return of intraocular pressure to the initial value (time) ([3]; Day 1): 24 h
maximum drop in intraocular pressure ([3]; Day 1, 2 hours after the first instillation): 4.8 mmHg
further decrease in intraocular pressure by second instillation ([3]; Day 1, second instillation 4 hours later): not found to bring about any further decrease in intraocular pressure
decrease in intraocular pressure ([3]; Day 2, 2 hours after instillation): significant decrease in intraocular pressure
decrease in intraocular pressure ([3]; Day 3): no significant intraocular pressure drop
decrease in intraocular pressure ([3]; Day 4): significant decrease in intraocular pressure
decrease in intraocular pressure ([3]; Day 5, any measuring time): almost the same degree of intraocular pressure decrease as on Day 1
tachyphylaxis ([3]; three times a day for 5 days): free from tachyphylaxis
increase in intraocular pressure after water loading ([4]; 30 min after water loading, physiological saline 8.7 mmHg): 3.4 mmHg
effect on increase in intraocular pressure compared with physiological saline ([4]; water loading): significantly reduced the increase in intraocular pressure
stability against heat and light [5]: stable
body weight measurement [6]: no abnormalities
general conditions [6]: no abnormalities
optical microscope evaluation of a sagittal section of the eyeball (eyeball): no abnormalities
conjunctival hyperemia (conjunctiva): merely a slight degree of conjunctival hyperemia
α-adrenergic blocking activity (α-adrenergic): exhibit both α-adrenergic and β-adrenergic blocking activities
